Reference: patent US20240125807A1, “METHOD FOR MEASURING RELATIVE fu RATIO BY DYNAMIC [sequence]” (Chugai Seiyaku Kabushiki Kaisha, priority 2020, published 2024)
Read-outs that look alike come from different tables or passages of the source.

What was measured:
[1] = Relative fu ratio rat/human, equilibrium dialysis serum versus serum, dynamic analysis; settings: Examples 4 to 13: 10% serum, analyte 0.2 μmol/L, 0.5-24 h
in vitro [2] = settings: rat
[3] = rat and human, 24 h, 0.2 μmol/L
[4] = fu by static analysis (versus buffer), rat serum (Reference Example); settings: Reference Examples 4 to 13: 10% serum versus buffer, 24 h
in vitro [5] = settings: human, serum
[6] = cited from earlier work
[7] = fu ratio (serum/microsome) using fu value (microsome) and fu value (serum)=0.01 based on the FDA guidance, Reference Examples 21 to 27; format: in vitro ADME, human; settings: fu value (microsome) of Reference Examples 14 to 20 and fu value (serum)=0.01 per FDA guidance (Reference Examples 21 to 27)
CYP3A4 [8] = target: T1, CYP3A4 (Homo sapiens, UniProt P08684); test: Inhibition constant Ki in human hepatic microsome with midazolam as CYP3A4 probe substrate
T1 sequence (P08684 whole entry): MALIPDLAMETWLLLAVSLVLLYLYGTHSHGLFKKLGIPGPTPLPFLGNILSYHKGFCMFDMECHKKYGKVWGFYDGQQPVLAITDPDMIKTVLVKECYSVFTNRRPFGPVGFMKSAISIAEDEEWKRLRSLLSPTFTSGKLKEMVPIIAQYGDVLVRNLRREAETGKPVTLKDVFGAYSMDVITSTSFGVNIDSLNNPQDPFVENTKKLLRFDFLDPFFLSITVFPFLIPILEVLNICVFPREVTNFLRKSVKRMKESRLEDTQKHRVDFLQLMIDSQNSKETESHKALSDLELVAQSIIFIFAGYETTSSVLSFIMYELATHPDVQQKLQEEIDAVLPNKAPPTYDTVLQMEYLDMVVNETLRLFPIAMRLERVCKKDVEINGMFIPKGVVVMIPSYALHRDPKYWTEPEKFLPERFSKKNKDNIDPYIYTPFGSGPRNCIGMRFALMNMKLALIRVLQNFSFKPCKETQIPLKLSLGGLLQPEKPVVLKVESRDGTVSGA
Procedure: For predicting the DDI risk, midazolam that is a CYP3A4 substrate was used as a probe compound to determine an inhibition constant Ki value of each compound in human hepatic microsome.
To 5 μL of a solution of midazolam dissolved therein at 50 mmol/L was added 70 μL of a 50% acetonitrile solution to obtain 75 μL in total of a solution. […] To 25 mg of commercially available β-NADPH (Wako Pure Chemical Industries, Ltd.) was added 3000 μL of a phosphate buffer at 0.1 mol/L to obtain a NADPH solution (10 mmol/L). The prepared solutions were mixed in the following order to obtain an inhibition reaction solution (100 μL in total), and the solution was reacted for 5 minutes with stirring at 37° C. where the time immediately after addition of the NADPH solution was defined as 0 minute after the start of the reaction.
The thus-obtained sample was used as a LCMS measurement solution. Two sets of the LCMS measurement solution were prepared, with one intended for quantitative determination of 1-hydroxymidazolam generated by metabolic reaction and the other intended for measurement of the actual concentration of a compound to be measured (inhibitor). Each set was used for LCMS quantitative analysis.
Therefore, the determined IC50 was directly used as Ki value.

[9] = serum, 24 h, 0.2 μmol/L
[10] = fu ratio (serum/microsome) from fu values by static analysis (versus buffer), Reference Examples 14 to 20; format: in vitro ADME, human; settings: from fu values of Reference Examples 14 to 20 (static analysis versus buffer)
CYP3A4 [11] = target: T1, CYP3A4; set-up: unit not given beside the values; settings: in vivo, cited from earlier work
[12] = serum, 24 h, 0.2 μmol/L; remark: listed apart in the source
[13] = fu value (microsome) by static analysis (versus buffer), Reference Examples 14 to 20; format: in vitro ADME; settings: human, human hepatic microsomes 0.1 mg/mL dialysed against buffer, microsome 0.1 mg/mL
[14] = fu by static analysis (versus buffer), human serum (Reference Example); settings: 24 h, 10% serum fu corrected to serum concentration 1/1
[15] = Relative fu ratio (serum/microsome), human serum and human hepatic microsome, dynamic analysis; settings: human serum fu corrected to 1/1, human hepatic microsome 0.1 mg/mL
CYP3A4 [16] = target: T1, CYP3A4; settings: read-out: Km value; midazolam as CYP3A4 substrate, suggested in the literature; cited from earlier work

With CNC(=O)c1ccc(N2C(=S)N(c3cnc(C#N)c(C(F)(F)F)c3)C(=O)C23CCC3)cc1F [Apalutamide] the “fu ratio (rat/human)” value [1] was 2.50, the fraction unbound at 24 h, 0.2 μmol/L (in vitro [2]) was 0.104 and the “fu ratio (rat/human)” value [3] was 3.36. For the same molecule, the “fu ratio (rat/human)” value [4] was 2.30 and the fraction unbound at 24 h, 0.2 μmol/L (in vitro [5]) was 0.03.
In the case of O=C1CCc2ccc(OCCCCN3CCN(c4cccc(Cl)c4Cl)CC3)cc2N1 [Aripiprazole], the Cmax ([6]; Dose 15 mg) is given as 242 ng/mL, the fraction unbound (in vitro [2]; serum) is given as 0.003 and the fraction unbound (in vitro [5]; Human (fu value)) is given as 0.002. It also gave a fraction unbound (in vitro [5]; Human serum (serum concentration: 1/1) (fu value)) of 0.0021.
Work on C=C[C@@H]1C[C@]1(NC(=O)[C@@H]1C[C@@H](Oc2ncc(OC)c3ccc(Cl)cc23)CN1C(=O)[C@@H](NC(=O)OC(C)(C)C)C(C)(C)C)C(=O)NS(=O)(=O)C1CC1 [Asunaprevir] yielded a fraction unbound at 24 h, 0.2 μmol/L (in vitro [2]) of 0.008 and a fraction unbound at 24 h, 0.2 μmol/L (in vitro [5]) of 0.005.
Molecule COc1ccc2c(c1)[C@@H]1C[C@]1(C(=O)N1[C@@H]3CC[C@H]1CN(C)C3)Cn1c-2c(C2CCCCC2)c2ccc(C(=O)NS(=O)(=O)N(C)C)cc21 [Beclabuvir] has a fraction unbound at 24 h, 0.2 μmol/L (in vitro [2]; serum) of 0.008 and a fraction unbound at 24 h, 0.2 μmol/L (in vitro [5]) of 0.007.
In the case of O=C(O)c1ccc(-n2nc(-c3ccccc3O)nc2-c2ccccc2O)cc1 [Deferasirox], the Cmax ([6]; Dose 210 mg) is given as 40327 ng/mL, the “fu ratio (serum/microsome)” value [7] is given as 0.0099 and the fraction unbound at 24 h, 0.2 μmol/L (in vitro [2]; serum) is given as 0.02. For the same molecule, the Ki (CYP3A4 [8]) was at least 49 µM, the Ki value (CYP3A4 [8]; microsomes) was “maximum addition concentration” and the “Human (fu value)” value [9] was 0.005. The “fu ratio (serum/microsome)” value [10] was 0.0046 and the “AUCR (observed value)” value (CYP3A4 [11]; 210 mg) was 0.90.
C[C@]12C=CC(=O)N[C@@H]1CC[C@@H]1[C@@H]2CC[C@]2(C)[C@@H](C(=O)Nc3cc(C(F)(F)F)ccc3C(F)(F)F)CC[C@@H]12 [Dutasteride] showed a fraction unbound at 24 h, 0.2 μmol/L (in vitro [2]; serum) of 0.009 and a fraction unbound at 24 h, 0.2 μmol/L (in vitro [5]) of 0.006.
In the case of COC(=O)N[C@H](C(=O)N1CCC[C@H]1c1nc(-c2ccc3c(c2)O[C@@H](c2ccccc2)n2c-3cc3cc(-c4c[nH]c([C@@H]5CCCN5C(=O)[C@@H](NC(=O)OC)C(C)C)n4)ccc32)c[nH]1)C(C)C [Elbasvir], the “Rat (fu value)” value [12] is reported as 0.001 and the “Human (fu value)” value [9] is reported as 0.001.
For C=CC(=O)N1CCC[C@@H](n2nc(-c3ccc(Oc4ccccc4)cc3)c3c(N)ncnc32)C1 [Ibrutinib], the fraction unbound at 24 h, 0.2 μmol/L (in vitro [2]; serum) was 0.007 and the fraction unbound at 24 h, 0.2 μmol/L (in vitro [5]) was 0.019.
In the case of CCC(C)n1ncn(-c2ccc(N3CCN(c4ccc(OCC5COC(Cn6cncn6)(c6ccc(Cl)cc6Cl)O5)cc4)CC3)cc2)c1=O (stereo not shown) [Itraconazole], the Cmax ([6]; Dose 50 mg) is listed as 14.11 ng/mL, the Cmax ([6]; Dose 200 mg) is listed as 163.93 ng/mL and the Cmax ([6]; Dose 400 mg) is listed as 317.52 ng/mL. The fraction unbound at 24 h, 1 μmol/L [13] was 0.77, the “AUCR (observed value)” value (CYP3A4 [11]; 50 mg) was 1.91 and the “AUCR (observed value)” value (CYP3A4 [11]; 200 mg) was 5.05. The “AUCR (observed value)” value (CYP3A4 [11]; 400 mg) was 5.07.
In the case of CC(=O)N1CCN(c2ccc(OCC3COC(Cn4ccnc4)(c4ccc(Cl)cc4Cl)O3)cc2)CC1 (stereo not shown) [Ketoconazole], the Cmax ([6]; Dose 200 mg) is given as 4681.36 ng/mL and the Cmax ([6]; Dose 400 mg) is given as 5877.28 ng/mL.
Molecule CS(=O)(=O)CCNCc1ccc(-c2ccc3ncnc(Nc4ccc(OCc5cccc(F)c5)c(Cl)c4)c3c2)o1 [Lapatinib] has a fraction unbound at 24 h, 1 μmol/L [13] of 0.05.
For O=C(NC1CCN(CCCCC2(C(=O)NCC(F)(F)F)c3ccccc3-c3ccccc32)CC1)c1ccccc1-c1ccc(C(F)(F)F)cc1 [Lomitapide], the fraction unbound at 24 h, 0.2 μmol/L (in vitro [2]; serum) was 0.006 and the “Human (fu value)” value [9] was 0.002.
For c1ccc(Cc2nn[nH]n2)c(COc2ccc(OCc3ccc4ccccc4n3)cc2)c1 [RG12525], the Cmax ([6]; Dose 100 mg) is listed as 1482 ng/mL, the Cmax ([6]; Dose 600 mg) is listed as 8186 ng/mL and the “fu ratio (serum/microsome)” value [7] is listed as 0.0129. For the same molecule, the fraction unbound at 24 h, 1 μmol/L [13] was 0.77, the Ki (CYP3A4 [8]) was 1.49 µM and the “fu ratio (serum/microsome)” value [10] was 0.0005. The “AUCR (observed value)” value (CYP3A4 [11]; 100 mg) was 1.09 and the “AUCR (observed value)” value (CYP3A4 [11]; 600 mg) was 1.01.
In the case of CCCSc1nc(N[C@@H]2C[C@H]2c2ccc(F)c(F)c2)c2nnn([C@@H]3C[C@H](OCCO)[C@@H](O)[C@H]3O)c2n1 [Tikaglera], the Cmax ([6]; Dose 90 mg) is given as 403 ng/mL, the “fu ratio (serum/microsome)” value [7] is given as 0.0207 and the “Human serum (serum concentration: 1/1) (fu value)” value [14] is given as 0.0032. The “fu ratio (scrum/microsome)” value [15] was 0.0103, the Ki value (CYP3A4 [8]; human hepatic microsome, midazolam 0.33 μmol/L, IC50 used as Ki) was “maximum addition concentration” and the Ki (CYP3A4 [8]; read-out: Ki value, human hepatic microsome, midazolam 0.33 μmol/L as CYP3A4 substrate, IC50 directly used as Ki) was at least 87 µM. The “fu ratio (serum/microsome)” value [10] was 0.0065.
For Cc1ncc2n1-c1ccc(Cl)cc1C(c1ccccc1F)=NC2 [midazolam], the Km (CYP3A4 [16]) is listed as 2.06 µM.
